Data from patent US9175003B2, “Substituted azoanthracene derivatives and intermediates for preparation thereof” (TransTech Pharma, LLC, priority 2009, dated 2015).

target: human GLP-1 receptor (Homo sapiens (Human), UniProt P43220); details: read-out: Mean EC50; cAMP, HTRF detection, 30 min at 37° C., HEK-293 cells expressing cloned human GLP-1 receptor
Sequence (P43220 24-463): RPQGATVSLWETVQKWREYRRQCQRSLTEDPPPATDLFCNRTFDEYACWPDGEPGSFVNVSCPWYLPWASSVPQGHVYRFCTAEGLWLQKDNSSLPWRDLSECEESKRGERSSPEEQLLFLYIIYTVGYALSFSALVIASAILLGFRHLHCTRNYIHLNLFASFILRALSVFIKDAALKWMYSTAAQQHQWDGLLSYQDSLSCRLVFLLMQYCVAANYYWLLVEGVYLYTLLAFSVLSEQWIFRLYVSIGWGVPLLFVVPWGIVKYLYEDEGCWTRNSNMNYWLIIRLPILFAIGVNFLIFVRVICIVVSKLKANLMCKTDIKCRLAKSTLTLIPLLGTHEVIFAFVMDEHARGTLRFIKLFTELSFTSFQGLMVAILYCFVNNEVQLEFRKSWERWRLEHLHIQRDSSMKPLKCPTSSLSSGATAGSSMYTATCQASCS

EC50 [nM] | SMILES
56 | CC[C@@H](c1ccccc1)N1Cc2cc3c(cc2C[C@H]1C(=O)N[C@@H](Cc1ccc(-c2ccnc(C)c2C)cc1)C(=O)O)OC[C@H](c1ccc(OC(C)C)cc1)O3 [Example 162, (S)-3-[4-(2,3-Dimethyl-pyridin-4-yl)-phenyl]-2-{[(3S,8S)-3-(4-isopropoxy-phenyl)-7-((S)-1-phenyl-propyl)-2,3,6,7,8,9-hexahydro-[1,4]dioxino[2,3-g]isoquinoline-8-carbonyl]-amino}-propionic acid]
208 | Cc1nccc(-c2ccc(C[C@H](NC(=O)[C@@H]3Cc4cc5c(cc4CN3C(=O)c3ccccc3)O[C@@H](c3ccc(OCC4CCCCC4)cc3)CO5)C(=O)O)cc2)c1C [Example 442, (S)-2-{[(3S,8S)-7-Benzoyl-3-(4-cyclohexylmethoxy-phenyl)-2,3,6,7,8,9-hexahydro-[1,4]dioxino[2,3-g]isoquinoline-8-carbonyl]-amino}-3-[4-(2,3-dimethyl-pyridin-4-yl)-phenyl]-propionic acid]
117 | CC[C@@H](c1ccccc1)N1Cc2cc3c(cc2C[C@H]1C(=O)N[C@@H](Cc1ccc(-c2ccnc(C)c2C)cc1)C(=O)O)OC[C@H](c1ccc(OC)cc1)O3 [Example 161, (S)-3-[4-(2,3-Dimethyl-pyridin-4-yl)-phenyl]-2-{[(3S,8S)-3-(4-methoxy-phenyl)-7-((S)-1-phenyl-propyl)-2,3,6,7,8,9-hexahydro-[1,4]dioxino[2,3-g]isoquinoline-8-carbonyl]-amino}-propionic acid]
143 | Cc1nccc(-c2ccc(C[C@H](NC(=O)[C@@H]3Cc4cc5c(cc4CN3C(=O)c3cccc(O)c3)O[C@@H](c3ccc(OCc4ccc(Cl)c(Cl)c4)cc3)CO5)C(=O)O)cc2)c1C [Example 277, (S)-2-{[(3S,8S)-3-[4-(3,4-Dichloro-benzyloxy)-phenyl]-7-(3-hydroxy-benzoyl)-2,3,6,7,8,9-hexahydro-[1,4]dioxino[2,3-g]isoquinoline-8-carbonyl]-amino}-3-[4-(2,3-dimethyl-pyridin-4-yl)-phenyl]-propionic acid]
49 | Cc1nc(C(=O)N2Cc3cc4c(cc3C[C@H]2C(=O)N[C@@H](Cc2ccc(-c3ccnc(C)c3C)cc2)C(=O)O)OC[C@H](c2ccc(OCCc3ccccc3)cc2)O4)c(C)o1 [Example 377, (S)-2-{[(3S,8S)-7-(2,5-Dimethyl-oxazole-4-carbonyl)-3-(4-phenethyloxy-phenyl)-2,3,6,7,8,9-hexahydro-[1,4]dioxino[2,3-g]isoquinoline-8-carbonyl]-amino}-3-[4-(2,3-dimethyl-pyridin-4-yl)-phenyl]-propionic acid]
843 | N#Cc1ccc(-c2ccc(C[C@H](NC(=O)[C@@H]3Cc4cc5c(cc4CN3C(=O)c3ccoc3)OC(c3ccc(OCc4ccc(Cl)c(Cl)c4)cc3)CO5)C(=O)O)cc2)cc1 (stereo in doubt) [Example 27, (S)-3-(4′-Cyano-biphenyl-4-yl)-2-{[(S)-3-[4-(3,4-dichloro-benzyloxy)-phenyl]-7-(furan-3-carbonyl)-2,3,6,7,8,9-hexahydro-[1,4]dioxino[2,3-g]isoquinoline-8-carbonyl]-amino}-propionic acid]
18 | Cc1nccc(-c2ccc(C[C@H](NC(=O)[C@@H]3Cc4cc5c(cc4CN3Cc3nccn3C)O[C@@H](c3ccc(OCc4ccc(Cl)c(Cl)c4)cc3)CO5)C(=O)O)cc2)c1C [Example 230, (S)-2-{[(3S,8S)-3-[4-(3,4-Dichloro-benzyloxy)-phenyl]-7-(1-methyl-1H-imidazol-2-ylmethyl)-2,3,6,7,8,9-hexahydro-[1,4]dioxino[2,3-g]isoquinoline-8-carbonyl]-amino}-3-[4-(2,3-dimethyl-pyridin-4-yl)phenyl]-propionic acid]
64 | Cc1nc(C(=O)N2Cc3cc4c(cc3C[C@H]2C(=O)N[C@@H](Cc2ccc(-c3ccnc(C)c3C)cc2)C(=O)O)OC[C@H](c2ccc(O[C@H]3CC[C@H](C(C)(C)C)CC3)cc2)O4)c(C)o1 [Example 372, (S)-2-{[(3S,8S)-3-[4-(trans-4-tert-Butyl-cyclohexyloxy)-phenyl]-7-(2,5-dimethyl-oxazole-4-carbonyl)-2,3,6,7,8,9-hexahydro-[1,4]dioxino[2,3-g]isoquinoline-8-carbonyl]-amino}-3-[4-(2,3-dimethyl-pyridin-4-yl)-phenyl]-propionic acid]
171 | Cc1nccc(-c2ccc(C[C@H](NC(=O)[C@@H]3Cc4cc5c(cc4CN3C(=O)NC(C)C)O[C@@H](c3ccc(OCc4ccc(Cl)c(Cl)c4)cc3)CO5)C(=O)O)cc2)c1C [Example 250, (S)-2-({(3S,8S)-3-[4-(3,4-Dichloro-benzyloxy)-phenyl]-7-isopropylcarbamoyl-2,3,6,7,8,9-hexahydro-[1,4]dioxino[2,3-g]isoquinoline-8-carbonyl}-amino)-3-[4-(2,3-dimethyl-pyridin-4-yl)-phenyl]-propionic acid]
5 | CC[C@@H](c1ccccc1)N1Cc2cc3c(cc2C[C@H]1C(=O)N[C@@H](Cc1ccc(-c2ccnc(C)c2C)cc1)C(=O)O)OC[C@H](c1ccc(OCc2cccc(Cl)c2)cc1)O3 [Example 147, (S)-2-{[(3S,8S)-3-[4-(3-Chloro-benzyloxy)-phenyl]-7-((S)-1-phenyl-propyl)-2,3,6,7,8,9-hexahydro-[1,4]dioxino[2,3-g]isoquinoline-8-carbonyl]-amino}-3-[4-(2,3-dimethyl-pyridin-4-yl)-phenyl]-propionic acid]
256 | CC[C@@H](c1ccccc1)N1Cc2cc3c(cc2C[C@H]1C(=O)N[C@@H](Cc1ccc(-c2ccnnc2)cc1)C(=O)O)OC[C@H](c1ccc(OCc2ccc(Cl)c(Cl)c2)cc1)O3 [Example 186, (S)-2-{[(3S,8S)-3-[4-(3,4-Dichloro-benzyloxy)-phenyl]-7-((S)-1-phenyl-propyl)-2,3,6,7,8,9-hexahydro-[1,4]dioxino[2,3-g]isoquinoline-8-carbonyl]-amino}-3-(4-pyridazin-4-yl-phenyl)-propionic acid]
150 | Cc1cc(Oc2ccc(C[C@H](NC(=O)[C@@H]3Cc4cc5c(cc4CN3C(=O)c3ccccc3)O[C@@H](c3ccc(OCc4ccc(Cl)c(Cl)c4)cc3)CO5)C(=O)O)cc2)ccn1 [Example 177, (S)-2-({(3S,8S)-7-Benzoyl-3-[4-(3,4-dichloro-benzyloxy)-phenyl]-2,3,6,7,8,9-hexahydro-[1,4]dioxino[2,3-g]isoquinoline-8-carbonyl}-amino)-3-[4-(2-methyl-pyridin-4-yloxy)-phenyl]-propionic acid]
62 | Cc1nccc(-c2ccc(C[C@H](NC(=O)[C@@H]3Cc4cc5c(cc4CN3C(=O)N[C@H](C)c3ccccc3)O[C@@H](c3ccc(OCc4cc(Cl)ccc4Cl)cc3)CO5)C(=O)O)cc2)c1C [Example 370, (S)-2-{[(3S,8S)-3-[4-(2,5-Dichloro-benzyloxy)-phenyl]-7-((R)-1-phenyl-ethylcarbamoyl)-2,3,6,7,8,9-hexahydro-[1,4]dioxino[2,3-g]isoquinoline-8-carbonyl]-amino}-3-[4-(2,3-dimethyl-pyridin-4-yl)-phenyl]-propionic acid]
262 | Cc1nccc(Oc2ccc(C[C@H](NC(=O)[C@@H]3Cc4cc5c(cc4CN3C(=O)NC(C)(C)c3ccccc3)O[C@@H](c3ccc(OCc4ccc(Cl)c(Cl)c4)cc3)CO5)C(=O)O)cc2)c1C [Example 348, (S)-2-{[(3S,8S)-3-[4-(3,4-Dichloro-benzyloxy)-phenyl]-7-(1-methyl-1-phenyl-ethylcarbamoyl)-2,3,6,7,8,9-hexahydro-[1,4]dioxino[2,3-g]isoquinoline-8-carbonyl]-amino}-3-[4-(2,3-dimethyl-pyridin-4-yloxy)-phenyl]-propionic acid]
118 | CC[C@@H](c1ccccc1)N1Cc2cc3c(cc2C[C@H]1C(=O)N[C@@H](Cc1ccc(-c2ccnc(C)c2C)cc1)C(=O)O)OC[C@H](c1ccc(OC2CCCC2)cc1)O3 [Example 171, (S)-2-{[(3S,8S)-3-(4-Cyclopentyloxy-phenyl)-7-((S)-1-phenyl-propyl)-2,3,6,7,8,9-hexahydro-[1,4]dioxino[2,3-g]isoquinoline-8-carbonyl]-amino}-3-[4-(2,3-dimethyl-pyridin-4-yl)-phenyl]-propionic acid]
348 | Cc1nccc(-c2ccc(C[C@H](NC(=O)[C@@H]3Cc4cc5c(cc4CN3C(=O)Nc3cnccn3)O[C@@H](c3ccc(OCc4ccc(Cl)c(Cl)c4)cc3)CO5)C(=O)O)cc2)c1C [Example 257, (S)-2-{[(3S,8S)-3-[4-(3,4-Dichloro-benzyloxy)-phenyl]-7-(pyrazin-2-ylcarbamoyl)-2,3,6,7,8,9-hexahydro-[1,4]dioxino[2,3-g]isoquinoline-8-carbonyl]-amino}-3-[4-(2,3-dimethyl-pyridin-4-yl)-phenyl]-propionic acid]
5 | Cc1nccc(-c2ccc(C[C@H](NC(=O)[C@@H]3Cc4cc5c(cc4CN3C(=O)[C@@H]3CCN(C(=O)OC(C)(C)C)C3)O[C@@H](c3ccc(OCc4ccc(Cl)c(Cl)c4)cc3)CO5)C(=O)O)cc2)c1C [Example 281, (R)-3-{(3S,8S)-8-{(S)-1-Carboxy-2-[4-(2,3-dimethyl-pyridin-4-yl)-phenyl]-ethylcarbamoyl}-3-[4-(3,4-dichloro-benzyloxy)-phenyl]-2,3,8,9-tetrahydro-6H-[1,4]dioxino[2,3-g]isoquinoline-7-carbonyl}-pyrrolidine-1-carboxylic acid tert-butyl ester]
183 | CCC(C)(C)NC(=O)N1Cc2cc3c(cc2C[C@H]1C(=O)N[C@@H](Cc1ccc(-c2ccnc(C)c2C)cc1)C(=O)O)OC[C@H](c1ccc(OCc2ccc(Cl)c(Cl)c2)cc1)O3 [Example 319, (S)-2-{[(3S,8S)-3-[4-(3,4-Dichloro-benzyloxy)-phenyl]-7-(1,1-dimethyl-propylcarbamoyl)-2,3,6,7,8,9-hexahydro-[1,4]dioxino[2,3-g]isoquinoline-8-carbonyl]-amino}-3-[4-(2,3-dimethyl-pyridin-4-yl)-phenyl]-propionic acid]
56 | Cc1nccc(-c2ccc(C[C@H](NC(=O)[C@@H]3Cc4cc5c(cc4CN3C(=O)c3ccccn3)O[C@@H](c3ccc(OCc4ccc(Cl)c(Cl)c4)cc3)CO5)C(=O)O)cc2)c1C [Example 236, (S)-2-{[(3S,8S)-3-[4-(3,4-Dichloro-benzyloxy)-phenyl]-7-(pyridine-2-carbonyl)-2,3,6,7,8,9-hexahydro-[1,4]dioxino[2,3-g]isoquinoline-8-carbonyl]-amino}-3-[4-(2,3-dimethyl-pyridin-4-yl)-phenyl]-propionic acid]
